Each structure is given as a SMILES string.

In the experiment the target is CDK2 (human) (UniProt P24941). Description: Enzyme Assay. Particulars: concentration not given here.
In the case of `CC(C)[C@@H](O)C(=O)N1CCC(Nc2nc(N)c(C(=O)c3c(F)cccc3F)s2)CC1`, the inhibition turned out to be 34%. To `COCCOCCOCC(=O)N1CCC(Nc2nc(N)c(C(=O)c3c(F)cccc3F)s2)CC1` belongs 38%; to `CC(=O)CCC(=O)N1CCC(Nc2nc(N)c(C(=O)c3c(F)cccc3F)s2)CC1`, 15%. To `Nc1nc(NC2CCN(C(=O)c3ccccc3-n3cccc3)CC2)sc1C(=O)c1c(F)cccc1F` belongs 50%; to `Nc1nc(NC2CCN(C(=O)COc3ccc(F)cc3)CC2)sc1C(=O)c1c(F)cccc1F`, 83%; to `CCCCCC(=O)N1CCC(Nc2nc(N)c(C(=O)c3c(F)cccc3F)s2)CC1`, 36%.

Take `Cc1cccc(OCC(=O)N2CCC(Nc3nc(N)c(C(=O)c4c(F)cccc4F)s3)CC2)c1C`: the inhibition amounted to 40%. To `Nc1nc(NC2CCN(C(=O)c3ccccn3)CC2)sc1C(=O)c1c(F)cccc1F` belongs 67%; to `Nc1nc(NC2CCN(C(=O)C3(O)CC3)CC2)sc1C(=O)c1c(F)cccc1F`, 46%.

Regarding `Nc1nc(NC2CCN(S(=O)(=O)c3ccc(O)c(C(=O)O)c3)CC2)sc1C(=O)c1c(F)cccc1F`, the inhibition is -16%. Turning to `CCCCC(=O)N1CCC(Nc2nc(N)c(C(=O)c3c(F)cccc3F)s2)CC1`, the inhibition came out at 48%. Regarding `COc1ccc(C(=O)N2CCC(Nc3nc(N)c(C(=O)c4c(F)cccc4F)s3)CC2)c(Cl)c1`, the inhibition was 52%.

As for `COC(=O)CCCC(=O)N1CCC(Nc2nc(N)c(C(=O)c3c(F)cccc3F)s2)CC1`, the inhibition is 45%. With `CC(O)(C(=O)N1CCC(Nc2nc(N)c(C(=O)c3c(F)cccc3F)s2)CC1)c1ccccc1` (stereo not drawn), the inhibition came out at 49%. Consider `CC(C)CCCC(=O)N1CCC(Nc2nc(N)c(C(=O)c3c(F)cccc3F)s2)CC1`, for which the inhibition amounted to 71%. Take `Nc1nc(NC2CCN(C(=O)/C=C/c3cccs3)CC2)sc1C(=O)c1c(F)cccc1F`: the inhibition amounted to 43%. The value for `Nc1ccc(C(=O)NCC(=O)N2CCC(Nc3nc(N)c(C(=O)c4c(F)cccc4F)s3)CC2)cc1` was 65%; that for `Nc1nc(NC2CCN(C(=O)C3CC3)CC2)sc1C(=O)c1c(F)cccc1F` was -2%; that for `Nc1nc(NC2CCN(C(=O)COc3cccc(C=O)c3)CC2)sc1C(=O)c1c(F)cccc1F` was 38%. To `C=CCCCCC(=O)N1CCC(Nc2nc(N)c(C(=O)c3c(F)cccc3F)s2)CC1` belongs 16%.

`Cc1c(S(=O)(=O)c2ccc(Cl)cc2)csc1C(=O)N1CCC(Nc2nc(N)c(C(=O)c3c(F)cccc3F)s2)CC1`: the inhibition is -7%. To `Nc1nc(NC2CCN(C(=O)c3ccc4[nH]cnc4c3)CC2)sc1C(=O)c1c(F)cccc1F` belongs 72%. `Nc1nc(NC2CCN(C(=O)C(O)Cc3ccc(O)cc3)CC2)sc1C(=O)c1c(F)cccc1F` (stereo not drawn): the inhibition was 34%.

`Nc1nc(NC2CCN(C(=O)[C@@H](O)C3CCCCC3)CC2)sc1C(=O)c1c(F)cccc1F`: the inhibition was determined as 51%. To `Nc1nc(NC2CCN(C(=O)Cc3cccc(F)c3F)CC2)sc1C(=O)c1c(F)cccc1F` belongs 57%; to `CC(=O)OC(C(=O)N1CCC(Nc2nc(N)c(C(=O)c3c(F)cccc3F)s2)CC1)c1ccccc1` (stereo not drawn), -5%.

Consider `CCCCOc1ccc(C(C)(C)CC)cc1S(=O)(=O)N1CCC(Nc2nc(N)c(C(=O)c3c(F)cccc3F)s2)CC1`, for which the inhibition was -30%. Take `Nc1nc(NC2CCN(C(=O)CCCCc3ccccc3)CC2)sc1C(=O)c1c(F)cccc1F`: the inhibition turned out to be 36%. The value for `Nc1nc(NC2CCN(C(=O)CS/C=C\c3ccccc3)CC2)sc1C(=O)c1c(F)cccc1F` was 59%; that for `Cc1ccc(CCC(=O)N2CCC(Nc3nc(N)c(C(=O)c4c(F)cccc4F)s3)CC2)cc1` was 36%. The value for `CC(=O)O[C@@H](C(=O)N1CCC(Nc2nc(N)c(C(=O)c3c(F)cccc3F)s2)CC1)c1ccccc1` was 25%. Turning to `CCCC/C=C/CC(=O)N1CCC(Nc2nc(N)c(C(=O)c3c(F)cccc3F)s2)CC1`, the inhibition worked out at 22%. As for `N#Cc1ccccc1C(=O)N1CCC(Nc2nc(N)c(C(=O)c3c(F)cccc3F)s2)CC1`, the inhibition came to 61%.

For the compound `CCC(O)C(=O)N1CCC(Nc2nc(N)c(C(=O)c3c(F)cccc3F)s2)CC1` (stereo not drawn), the inhibition stood at 48%.

For `CC(SCc1ccccc1)C(=O)N1CCC(Nc2nc(N)c(C(=O)c3c(F)cccc3F)s2)CC1` (stereo not drawn), the inhibition is 50%. `Nc1nc(NC2CCN(C(=O)c3ccc(F)c4ccccc34)CC2)sc1C(=O)c1c(F)cccc1F`: the inhibition came out at 30%. To `CCc1ccc2[nH]c(C(=O)N3CCC(Nc4nc(N)c(C(=O)c5c(F)cccc5F)s4)CC3)cc2c1` belongs 74%. For `Nc1nc(NC2CCN(C(=O)[C@H]3CCC(=O)O3)CC2)sc1C(=O)c1c(F)cccc1F`, the inhibition worked out at 76%.

Take `Nc1nc(NC2CCN(C(=O)CC3=CCCCC3)CC2)sc1C(=O)c1c(F)cccc1F`: the inhibition turned out to be 51%.

`CC(CC(=O)N1CCC(Nc2nc(N)c(C(=O)c3c(F)cccc3F)s2)CC1)CC(C)(C)C` (stereo not drawn): the inhibition came out at 35%.

For `Nc1nc(NC2CCN(C(=O)c3cccc4ccccc34)CC2)sc1C(=O)c1c(F)cccc1F`, the inhibition was 55%. Consider `CC1(C)OC(=O)CC1C(=O)N1CCC(Nc2nc(N)c(C(=O)c3c(F)cccc3F)s2)CC1` (stereo not drawn), for which the inhibition came to 79%. In the case of `N#C/C(=C\c1ccccc1)C(=O)N1CCC(Nc2nc(N)c(C(=O)c3c(F)cccc3F)s2)CC1`, the inhibition came out at 67%. The value for `Nc1nc(NC2CCN(C(=O)COc3ccccc3)CC2)sc1C(=O)c1c(F)cccc1F` was 59%; that for `CC(=O)OCC(=O)N1CCC(Nc2nc(N)c(C(=O)c3c(F)cccc3F)s2)CC1` was 25%. To `Nc1cc(C(=O)N2CCC(Nc3nc(N)c(C(=O)c4c(F)cccc4F)s3)CC2)ccc1Cl` belongs 50%; to `CCN(CC)CCC(=O)N1CCC(Nc2nc(N)c(C(=O)c3c(F)cccc3F)s2)CC1`, 57%; to `Nc1nc(NC2CCN(S(=O)(=O)c3c(Cl)cc(C(F)(F)F)cc3Cl)CC2)sc1C(=O)c1c(F)cccc1F`, -23%. As to `Nc1nc(NC2CCN(C(=O)c3ccc(-c4ccccc4)cc3)CC2)sc1C(=O)c1c(F)cccc1F`, the inhibition is -11%. On to `Nc1nc(NC2CCN(C(=O)CNc3ccccc3)CC2)sc1C(=O)c1c(F)cccc1F`, for which the inhibition worked out at 57%.

As for `COc1ccc(C(=O)N2CCC(Nc3nc(N)c(C(=O)c4c(F)cccc4F)s3)CC2)cc1OC`, the inhibition was -23%.

For the compound `CC1(C(=O)N2CCC(Nc3nc(N)c(C(=O)c4c(F)cccc4F)s3)CC2)CCCCC1`, the inhibition was -5%. Turning to `COc1ccccc1/C=C\C(=O)N1CCC(Nc2nc(N)c(C(=O)c3c(F)cccc3F)s2)CC1`, the inhibition is 70%.

With `CCSc1ncccc1C(=O)N1CCC(Nc2nc(N)c(C(=O)c3c(F)cccc3F)s2)CC1`, the inhibition is 38%. The value for `Nc1nc(NC2CCN(C(=O)Cc3ccc(O)c(F)c3)CC2)sc1C(=O)c1c(F)cccc1F` was 59%; that for `Nc1nc(NC2CCN(C(=O)CCO)CC2)sc1C(=O)c1c(F)cccc1F` was 39%.

For the compound `Nc1nc(NC2CCN(C(=O)C(O)c3cc(F)ccc3F)CC2)sc1C(=O)c1c(F)cccc1F` (stereo not drawn), the inhibition worked out at 57%.

As to `Nc1nc(NC2CCN(C(=O)C3(c4ccc(Cl)cc4)CC3)CC2)sc1C(=O)c1c(F)cccc1F`, the inhibition was -1%.
